# According to patent publication US8889902B2, “Acetylsalicylic acid salts” (priority 2009, dated 2014):
# Values joined by “and” are separate entries in the source; they are usually repeats but may differ in a detail not shown here. Equal entries are not always repeated. Marks after values point to notes of the source that are not given here.
# Assays:
# carrageneen paw oedema = experiment: Carrageneen oedema, preventive mode; assay type: in vivo, rats; conditions: preventive 6 times, 4 h
# Description: The […] oedema was investigated by established method ([…], Patol Fiziol Eksp Ter, 2002(2):24-7 (Rus) on 42 rats with body mass of 178-220 g: […] The prevention index was calculated as indicated in previous section.
# platelet aggregation = experiment: Platelet aggregation in vitro, whole blood impedance aggregometry (Multiplate); assay type: cell-based, healthy donor
# Description: Platelet aggregation was studied using whole blood impedance aggregometry on Multiplate (Multiple Platelet Function Analyzer, Dynabyte Medical, Germany) (Toth O et al, Thromb Haemost 2006; 96:781-788. […] Blood samples for in vitro experiment were collected from healthy donor B. […] In the ex vivo experiment blood was collected into plastic tubes covered with hirudin (Dynabyte Medical, Germany) from narcotized rats that were treated for 3 previous days with test substances p.o. The measurements were performed according to modified Dynabyte Medical protocol. […] After 5 min incubation and stirring at 37° C., measurements were initiated by adding of the appropriate agonist solution (sourced from Dynabyte Medical, Germany): 1) adenosine diphosphate (ADP)-ADP-Test. ADP stimulates platelet activation by the ADP receptors (P2Y 12 and other). […] 3) ADP HS test (prostaglandin E1 in combination with ADP). […] Aggregation curves were recorded for 6 min. and analyzed using Dynabyte Medical software. We calculated the following parameters of platelet aggregation: […] It is affected by the total height of the aggregation curve as well as by its slope and is best suited to express the overall platelet activity.
# [1] = system: abdominal constrictions in writhing test model; experiment: Mouse writhing test (acetic acid i.p.); assay type: in vivo, mice; conditions: for No. of constrictions: 10 min observation
# Description: In investigating the analgesic, anti-inflammatory and antipyretic effects of MASA methods widely used in evaluation of NSAIDs were employed. Mongrel white laboratory mice and Wistar rats were used in experiments. Animals were kept in groups of 7-8 in adequate cages in climatized rooms at 22±1° C., relative humidity 60±5% and 12/12-hour light/darkness cycle with free access to feed and water.
# Aqueous solutions of test substances were prepared ex tempore. In each experimental series a control group was used that received an identical volume of water p.o.
# Nociceptive reaction was evaluated by chemical irritation method—writhing test (Charaborty A et al, Indian J of Pharmacology 2004; 36(3):148-150). Animals received i.p. 0.25 ml of 0.75% aqueous acetic acid solution: After the injection animals were placed separately in special boxes and observed for 10 minutes. The number of abdominal constrictions was registered. Analgesic activity was manifested by reduction of the number of abdominal constrictions in the 10 minutes period. Test substances were introduced 30 min before the irritating agent. The level of analgesia was expressed as analgesic index calculated as follows: A=(Cc−Ct)/Cc·100%, where A—Analgesic index Cc—number of contractions in control group, Ct—number of contractions in the test group.
# rat ear skin temperature = experiment: Ear skin temperature rise caused by NA, p.o. administration; assay type: in vivo, Wistar rats; conditions: for Max incr. %: NA alone = 100
# Description: Male Wistar rats (280-330 g) were used. Animals were held in groups of 6 in climatized rooms at 22±1° C., relative humidity 60±5%, and 12/12-hour light/dark cycle with free access to drinking water and feed (R3—Lactamin AB, Sweden). For registration of changes in skin temperature of intact rats contactless temperature recording method was used (Papaliodis D et al, Br J Pharmacol 2008; 153:1382-1387). Temperature measurements were performed with a hand-held infrared thermometer (Model Proscan 510, TFA-Dostman). Animals were habituated to handling and to the infrared probe for 3 days before use. Temperature readings from the dorsal side of each ear were recorded without anaesthesia at beginning and during experiment. The ear temperature was measured every 5 min. for a period of up to 60 min. The animals were returned to their cages between measurements. NA, MD and MASA were dissolved in saline and pH was corrected immediately before usage. LA (MK 0524, Cayman Chemicals) was first dissolved in DMSO and then freshly diluted with 0.9% NaCl, on each day of the experiment. The rate of NA and LA combination was based on Summary of Product Characteristics for Tredaptive™ (nicotinic acid/laropiprant) 1000 mg/20 mg modified-release tablets.
# 9.2.3. Investigation of the Effect of MASA/NA and MD/NA Combination on Skin Temperature at Simultaneous or 45 Min Advance p.o. Administration
structure (smiles),measurement,setting,value
"CC(=O)Oc1ccccc1C(=O)O [ASA, acetylsalicylic acid]",Reduction in % (oedema),carrageneen paw oedema; 50 mg/kg p.o.,70%
same,Volume of paw after injection of carrageneen,carrageneen paw oedema; 50 mg/kg p.o.,1.55 ± 0.04 mL
same,AUC,"platelet aggregation; AA induced, 10^−4",450 ± 24.8^2#@ AU*min and 450 ± 24.8^3a@ AU*min
same,Amax,"platelet aggregation; AA induced, 10^−4",103.1 ± 5.9^2#@ AU and 103.1 ± 5.9^2a@ AU
same,AUC,"platelet aggregation; ADP induced, 10^−4",883 ± 50.3 AU*min
same,Amax,"platelet aggregation; ADP induced, 10^−4",151.7 ± 9.3 AU
same,AUC,"platelet aggregation; PGE1 + ADP induced, 10^−4",961 ± 35.0 AU*min
same,Amax,"platelet aggregation; PGE1 + ADP induced, 10^−4",162.5 ± 8.7 AU
same,Analgesic index,[1]; 50 mg/kg p.o.,7.1
same,Animals with positive reaction/total number,[1]; 50 mg/kg p.o. 30 min before acetic acid,6/8
same,No. of constrictions,[1]; 50 mg/kg p.o.,5.75 ± 1.32***^$$$
"CC(=O)Oc1ccccc1C(=O)[O-].C[N+](C)(C)NCCC(=O)O [MASA, 3-(trimethylammonioamino)propanoate Acetylsalicylic Acid Addition Salt]",Reduction in % (oedema),carrageneen paw oedema; 150 mg/kg p.o.,94%
same,Volume of paw after injection of carrageneen,carrageneen paw oedema; 150 mg/kg p.o.,1.40 ± 0.09**^$ ml
same,Reduction in % (oedema),carrageneen paw oedema; 300 mg/kg p.o.,86%
same,Volume of paw after injection of carrageneen,carrageneen paw oedema; 300 mg/kg p.o.,1.41 ± 0.04**^$ ml
same,AUC,"platelet aggregation; AA induced, 10^−4",298 ± 25.3^3#&&$ AU*min and 298 ± 25.3^3aa& AU*min
same,Amax,"platelet aggregation; AA induced, 10^−4",66.1 ± 6.8^3#&&$ AU and 66.1 ± 6.8^3aa& AU
same,AUC,"platelet aggregation; AA induced, 10^−5",832 ± 54.1^1 AU*min
same,Amax,"platelet aggregation; AA induced, 10^−5",148.4 ± 5.7^1 AU
same,AUC,"platelet aggregation; ADP induced, 10^−4",798 ± 38.9^1 AU*min
same,Amax,"platelet aggregation; ADP induced, 10^−4",140.5 ± 7.2^1 AU
same,AUC,"platelet aggregation; ADP induced, 10^−5",828 ± 63.5 AU*min
same,Amax,"platelet aggregation; ADP induced, 10^−5",153.5 ± 8.8 AU
same,AUC,"platelet aggregation; PGE1 + ADP induced, 10^−4",533 ± 20.3^3$&&& AU*min
same,Amax,"platelet aggregation; PGE1 + ADP induced, 10^−4",87.7 ± 4.6^3$&&& AU
same,AUC,"platelet aggregation; PGE1 + ADP induced, 10^−5",595 ± 45.3^1 AU*min
same,Amax,"platelet aggregation; PGE1 + ADP induced, 10^−5",99.3 ± 4.8^2 AU
same,Temp. 15 min,rat ear skin temperature; MASA 150 mg/kg p.o. alone,29.9 ± 0.33^$$ ° C.
same,Temp. 30 min,rat ear skin temperature; MASA 150 mg/kg p.o. alone,29.5 ± 0.35^$$$ ° C.
same,Temp. 45 min,rat ear skin temperature; MASA 150 mg/kg p.o. alone,29.6 ± 0.39^$$ ° C.
same,Max incr. %,rat ear skin temperature; MASA 150 mg/kg p.o. alone,6%
same,Analgesic index,[1]; 75 mg/kg p.o.,4.5
same,Animals with positive reaction/total number,[1]; 75 mg/kg p.o. 30 min before acetic acid,8/8
same,No. of constrictions,[1]; 75 mg/kg p.o.,12.13 ± 0.61**^$$
same,Analgesic index,[1]; 150 mg/kg p.o.,5.2
same,Animals with positive reaction/total number,[1]; 150 mg/kg p.o. 30 min before acetic acid,7/8
same,No. of constrictions,[1]; 150 mg/kg p.o.,10.63 ± 1.10**^$$
same,Analgesic index,[1]; 300 mg/kg p.o.,7.3
same,Animals with positive reaction/total number,[1]; 300 mg/kg p.o. 30 min before acetic acid,5/8
same,No. of constrictions,[1]; 300 mg/kg p.o.,6.00 ± 1.39***^$$$
"C[N+](C)(C)NCCC(=O)[O-].O.O [MD, 3-(Trimethylammonioamino)propanoate dihydrate]",Reduction in % (oedema),carrageneen paw oedema; 100 mg/kg p.o.,34%
same,Volume of paw after injection of carrageneen,carrageneen paw oedema; 100 mg/kg p.o.,1.66 ± 0.10 mL
same,AUC,"platelet aggregation; AA induced, 10^−4",1050 ± 37.6^& AU*min
same,Amax,"platelet aggregation; AA induced, 10^−4",179.5 ± 7.3^& AU
same,AUC,"platelet aggregation; ADP induced, 10^−4",869 ± 36.3 AU*min
same,Amax,"platelet aggregation; ADP induced, 10^−4",153.2 ± 6.1 AU
same,AUC,"platelet aggregation; PGE1 + ADP induced, 10^−4",587 ± 37.4^2&& AU*min
same,Amax,"platelet aggregation; PGE1 + ADP induced, 10^−4",101.4 ± 2.2^2&& AU
same,Temp. 15 min,rat ear skin temperature; MD 100 mg/kg p.o. alone,30.1 ± 0.39^$$ ° C.
same,Temp. 30 min,rat ear skin temperature; MD 100 mg/kg p.o. alone,29.8 ± 0.38^$$$ ° C.
same,Temp. 45 min,rat ear skin temperature; MD 100 mg/kg p.o. alone,30.0 ± 0.34^$$ ° C.
same,Max incr. %,rat ear skin temperature; MD 100 mg/kg p.o. alone,6%
same,Analgesic index,[1]; 100 mg/kg p.o.,−0.4
same,Animals with positive reaction/total number,[1]; 100 mg/kg p.o. 30 min before acetic acid,8/8
same,No. of constrictions,[1]; 100 mg/kg p.o.,22.10 ± 1.47
"O=C(O)c1cccnc1 [NA, nicotinic acid]",AUC,"platelet aggregation; AA induced, 10^−4",1010 ± 41.7 AU*min
same,Amax,"platelet aggregation; AA induced, 10^−4",161.1 ± 9.4 AU
same,AUC,"platelet aggregation; ADP induced, 10^−4",859 ± 62.5 AU*min
same,Amax,"platelet aggregation; ADP induced, 10^−4",148.0 ± 5.2^1 AU
same,AUC,"platelet aggregation; PGE1 + ADP induced, 10^−4",862 ± 51.9 AU*min
same,Amax,"platelet aggregation; PGE1 + ADP induced, 10^−4",146.7 ± 8.6 AU
same,Temp. 15 min,rat ear skin temperature; NA 40 mg/kg p.o.,32.3 ± 0.46 °C
same,Temp. 30 min,rat ear skin temperature; NA 40 mg/kg p.o.,33.1 ± 0.41 °C
same,Temp. 45 min,rat ear skin temperature; NA 40 mg/kg p.o.,32.4 ± 0.48 °C
same,Max incr. %,rat ear skin temperature; NA 40 mg/kg p.o.,100%
